Reference: patent publication US20240398805A1, “QUINAZOLINE DERIVED COMPOUNDS AS EGFR INHIBITORS AND THEIR USES THEREOF” (ACCUTAR BIOTECHNOLOGY INC., priority 2021, published 2024)

How the values were obtained:
Format in all cases: cell-based
[1] = system: HCC827-SVD cells (human EGFR exon 20 insertion mutant D770_N771 insSVD); assay: Cell growth inhibition (CellTiter-Glo, 3 days) in HCC827-SVD; settings: 72 h, 3 days after administration
In short: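 HCC827 cells carrying lentiviral codon-optimized EGFR D770_N771 insSVD, with endogenous EGFR knocked out by CRISPR (single clone), seeded at 5000 cells/well in RPMI with 10% FBS. Viability read by CellTiter-Glo luminescence.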

[2] = system: HCC827-ASV cells (human EGFR exon 20 insertion mutant A769_D770insASV); assay: Cell growth inhibition (CellTiter-Glo, 3 days) in HCC827-ASV; settings: 72 h, 3 days after administration
In short: (§1)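 Growth inhibition used a CellTiter-Glo luminescence read-out after 3 days of compound exposure at various concentrations. Cells were plated the day before at 5000/well in RPMI plus 10% FBS. The lines are HCC827 transduced by lentivirus with codon-optimized EGFR ASV or ERBB2 YVMA exon 20 insertions.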

HCC827 cells = assay: Cell growth inhibition (CellTiter-Glo, 3 days) in HCC827; settings: Homo sapiens, 72 h, 3 days after administration
In short: (§2)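 HCC827 cells were plated at 5000 cells/well in RPMI with 10% FBS, and A431 cells at the same density in DMEM with 10% FBS. After overnight attachment, compounds were added at various concentrations. Luminescence was recorded after plates were equilibrated to room temperature and incubated 10 min with reagent.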

A431 cells = assay: Cell growth inhibition (CellTiter-Glo, 3 days) in A431; settings: Homo sapiens, A-431, 72 h, 3 days after administration
In short: as §2

[3] = system: HCC827-YVMA cells (human ERBB2 exon20 insertion mutant A775_G776ins YVMA); assay: Cell growth inhibition (CellTiter-Glo, 3 days) in HCC827-YVMA; settings: 72 h, 3 days after administration
In short: as §1

SMILES | GI50 [1] | GI50 [2] | GI50 (HCC827 cells) | GI50 (A431 cells) | GI50 [3]
C=CC(=O)N1CCC(Nc2cc3c(Nc4ccc(Oc5ccnc(-c6nc(C)cs6)c5)cc4F)ncnc3cc2OC)CC1 [Example 98, 1-(4-((4-((2-fluoro-4-((2-(4-methylthiazol-2-yl)pyridin-4-yl)oxy)phenyl)amino)-7-methoxyquinazolin-6-yl)amino)piperidin-1-yl)prop-2-en-1-one] | < 30 nM | < 30 nM | 60 to 100 nM | 100 to 300 nM | < 30 nM
C=CC(=O)N1CCC(Nc2cc3c(Nc4ccc(Oc5ccn(-c6ccc(C)cn6)n5)cc4F)ncnc3cc2OC)CC1 [Compound 14] | 100 to 300 nM | 100 to 300 nM | 60 to 100 nM | 60 to 100 nM | 60 to 100 nM
C=CC(=O)N1CCC(Nc2cc3c(Nc4ccc(Oc5ccnc(N6CCC(N(C)C)CC6)c5)cc4F)ncnc3cc2OC)CC1 [Example 122, 1-(4-((4-((4-((2-(4-(dimethylamino)piperidin-1-yl)pyridin-4-yl)oxy)-2-fluorophenyl)amino)-7-methoxyquinazolin-6-yl)amino)piperidin-1-yl)prop-2-en-1-one] | 600 to 1000 nM | 600 to 1000 nM | 600 to 1000 nM | ≥ 1000 nM | ≥ 1000 nM
C=CC(=O)N1CCC(Nc2cc3c(Nc4ccc(Oc5nc(-c6ccc(OC)nn6)cs5)cc4F)ncnc3cc2OC)CC1 [Example 56, 1-(4-((4-((2-fluoro-4-((4-(6-methoxypyridazin-3-yl)thiazol-2-yl)oxy)phenyl)amino)-7-methoxyquinazolin-6-yl)amino)piperidin-1-yl)prop-2-en-1-one] | < 30 nM | < 30 nM | 30 to 60 nM | < 30 nM | < 30 nM
C=CC(=O)N1CCC(Nc2cc3c(Nc4ccc(Oc5ccnc(N6CCC[C@@H](OC)C6)c5)cc4F)ncnc3cc2OC)CC1 [Example 164, (R)-1-(4-((4-((2-fluoro-4-((2-(3-methoxypiperidin-1-yl)pyridin-4-yl)oxy)phenyl)amino)-7-methoxyquinazolin-6-yl)amino)piperidin-1-yl)prop-2-en-1-one] | < 30 nM | < 30 nM | 300 to 600 nM | 600 to 1000 nM | < 30 nM
C=CC(=O)N1CCC(Oc2cc3c(Nc4ccc(Oc5ccnc(N6CC[C@@H](N(C)C)C6)c5)cc4F)ncnc3cc2OC)CC1 [Example 162, (R)-1-(4-((4-((4-((2-(3-(dimethylamino)pyrrolidin-1-yl)pyridin-4-yl)oxy)-2-fluorophenyl)amino)-7-methoxyquinazolin-6-yl)oxy)piperidin-1-yl)prop-2-en-1-one] | 100 to 300 nM | 100 to 300 nM | 100 to 300 nM | ≥ 1000 nM | 100 to 300 nM
C=CC(=O)N1CCC(Nc2cc3c(Nc4ccc(Oc5ccnc(N6CC[C@@H](CO)C6)c5)cc4F)ncnc3cc2OC)CC1 [Example 251, (R)-1-(4-((4-((2-fluoro-4-((2-(3-(hydroxymethyl)pyrrolidin-1-yl)pyridin-4-yl)oxy)phenyl)amino)-7-methoxyquinazolin-6-yl)amino)piperidin-1-yl)prop-2-en-1-one] | < 30 nM | 30 to 60 nM | 100 to 300 nM | 300 to 600 nM | 30 to 60 nM
C=CC(=O)N1CCC(Nc2cc3c(Nc4ccc(Oc5nc(-c6cnc(C)nc6)cs5)cc4F)ncnc3cc2OC)CC1 [Example 32, 1-(4-((4-((2-fluoro-4-((4-(2-methylpyrimidin-5-yl)thiazol-2-yl)oxy)phenyl)amino)-7-methoxyquinazolin-6-yl)amino)piperidin-1-yl)prop-2-en-1-one] | < 30 nM | < 30 nM | 60 to 100 nM | 100 to 300 nM | < 30 nM
C=CC(=O)N1CCC(Nc2cc3c(Nc4ccc(Oc5ccnc(N6CC[C@H](C)C6)c5)cc4F)ncnc3cc2OC)CC1 [Example 198, (S)-1-(4-((4-((2-fluoro-4-((2-(3-methylpyrrolidin-1-yl)pyridin-4-yl)oxy)phenyl)amino)-7-methoxyquinazolin-6-yl)amino)piperidin-1-yl)prop-2-en-1-one] | < 30 nM | < 30 nM | 30 to 60 nM | 600 to 1000 nM | < 30 nM
C=CC(=O)N1CCC(Nc2cc3c(Nc4ccc(Oc5ccnc(N6CCN(C(C)C)CC6)c5)cc4F)ncnc3cc2OC)CC1 [Example 187, 1-(4-((4-((2-fluoro-4-((2-(4-isopropylpiperazin-1-yl)pyridin-4-yl)oxy)phenyl)amino)-7-methoxyquinazolin-6-yl)amino)piperidin-1-yl)prop-2-en-1-one] | 100 to 300 nM | 100 to 300 nM | ≥ 1000 nM | ≥ 1000 nM | 300 to 600 nM
C=CC(=O)N1CCC(Nc2cc3c(Nc4ccc(Oc5ccnc(N6CCOC[C@@H]6C)c5)cc4F)ncnc3cc2OC)CC1 [Example 135, (S)-1-(4-((4-((2-fluoro-4-((2-(3-methylmorpholino)pyridin-4-yl)oxy)phenyl)amino)-7-methoxyquinazolin-6-yl)amino)piperidin-1-yl)prop-2-en-1-one] | 60 to 100 nM | < 30 nM | 300 to 600 nM | ≥ 1000 nM | 30 to 60 nM
C=CC(=O)N1CCC(Nc2cc3c(Nc4ccc(Oc5ccnc(N6CCC(O)C(C)(C)C6)c5)cc4F)ncnc3cc2OC)CC1 (centres unmarked) [Example 171, 1-(4-((4-((2-fluoro-4-((2-(4-hydroxy-3,3-dimethylpiperidin-1-yl)pyridin-4-yl)oxy)phenyl)amino)-7-methoxyquinazolin-6-yl)amino)piperidin-1-yl)prop-2-en-1-one] | 30 to 60 nM | 30 to 60 nM | 300 to 600 nM | 600 to 1000 nM | 30 to 60 nM
C=CC(=O)Nc1cc2c(Nc3ccc(Oc4ccnc(N5C[C@@H](C)O[C@@H](C)C5)c4)cc3F)ncnc2cc1OCC [Example 169, N-(4-((4-((2-((2S,6R)-2,6-dimethylmorpholino)pyridin-4-yl)oxy)-2-fluorophenyl)amino)-7-ethoxyquinazolin-6-yl)acrylamide] | ≥ 1000 nM | ≥ 1000 nM | ≥ 1000 nM | ≥ 1000 nM | ≥ 1000 nM
C=CC(=O)N1CCC(Nc2cc3c(Nc4ccc(Oc5ccnc(N6CCC[C@H](C)C6)c5)cc4F)ncnc3cc2OC)CC1 [Example 222, (S)-1-(4-((4-((2-fluoro-4-((2-(3-methylpiperidin-1-yl)pyridin-4-yl)oxy)phenyl)amino)-7-methoxyquinazolin-6-yl)amino)piperidin-1-yl)prop-2-en-1-one] | < 30 nM | < 30 nM | 60 to 100 nM | 600 to 1000 nM | < 30 nM
C=CC(=O)N1CCC(Nc2cc3c(Nc4ccc(Oc5ccnc(N6CC[C@@H](O)C6)c5)cc4F)ncnc3cc2OC)CC1 [Example 173, (R)-1-(4-((4-((2-fluoro-4-((2-(3-hydroxypyrrolidin-1-yl)pyridin-4-yl)oxy)phenyl)amino)-7-methoxyquinazolin-6-yl)amino)piperidin-1-yl)prop-2-en-1-one] | 100 to 300 nM | 60 to 100 nM | 300 to 600 nM | ≥ 1000 nM | 100 to 300 nM
C=CC(=O)N1CCC(Nc2cc3c(Nc4ccc(Oc5ccnc(N6CC7(CCOCC7)C6)c5)cc4F)ncnc3cc2OC)CC1 [Example 204, 1-(4-((4-((4-((2-(7-oxa-2-azaspiro[3.5]nonan-2-yl)pyridin-4-yl)oxy)-2-fluorophenyl)amino)-7-methoxyquinazolin-6-yl)amino)piperidin-1-yl)prop-2-en-1-one] | < 30 nM | < 30 nM | 60 to 100 nM | 100 to 300 nM | < 30 nM
